Article PMC10056348, “Photocaged Histone Deacetylase Inhibitors as Prodrugs in Targeted Cancer Therapy” (Pharmaceuticals, 2023)

Assays:
[1] = test system: acetyl-histone H3 in MV-3 cells; assay: Immunoblot of acetyl-histone H3 (marker of HDAC1-3 inhibition); assay type: cell-based; details: 24 h, 3.1 µM, after UV irradiation (365 nm, 10 min)
Procedure: MV-3 cells were seeded to cell culture flasks and cultured for 48 h. Aliquots of the DMSO stock solution (10 mM) designated for photolysis were irradiated for 10 min with the UV reactor (see Section 4.3). The cells were treated with the stock solutions, processed with or without irradiation, of the indicated concentration or vehicle (DMSO) for 24 h. Cell lysis was performed with Cell Extraction Buffer (10 mM Tris, pH 7.4, 100 mM NaCl, 1 mM EDTA, 1 mM EGTA, 1 mM NaF, 20 mM Na4P2O7, 2 mM Na3VO4, 1% Triton™ ×-100, 10% glycerol, 0.1% SDS, 0.5% deoxycholate; Catalog# FNN0011, Thermo Fisher Scientific Inc., Waltham, MA, USA) and addition of Halt Protease Inhibitor Cocktail (100×) (Catalog# 78429, Life Technologies GmbH Carlsbad, CA, USA) and phenylmethanesulfonyl fluoride (Catalog# 10837091001, Sigma-Aldrich, St. Louis, MO, USA) according to manufacturer instructions. Protein content was determined by Pierce™ BCA Protein Assay Kit (Catalog# 23225, Thermo Fisher Scientific Inc., Waltham, MA, USA) according to manufacturer guidelines. Samples were denatured by Laemmli 2× Concentrate (Catalog# S3401-10VL, Sigma-Aldrich, St. Louis, MO, USA), and Precision Plus Protein Unstained Standard was used as molecular weight marker (Catalog# 1610363, Bio-Rad, Hercules, CA, USA). […]

[2] = Photo-uncaging efficiency (HPLC after irradiation at 365 nm); assay type: physicochemical; details: 10 min
Procedure: Photolysis (photo-uncaging) of photocaged HDACi prodrugs was performed at room temperature using a UVP CL-1000 Crosslinker (Analytik Jena GmbH, Jena, Germany) equipped with five UV-A tubes (F8T5/BL368; λmax = 365 nm; Analytik Jena GmbH, Jena, Germany). Hereafter, this entire experimental set-up will be referred to as the “UV reactor”.
For the photo-uncaging efficiency testing, 10 µL of a 1.0 mM DMSO solution of the respective compound was irradiated for 10 min using the UV reactor described above. Subsequently, 90 µL acetonitrile was added, and the samples were analyzed via HPLC. The amount of photo-cleaved HDACi was determined by comparison with a five-point calibration curve of the respective parent inhibitor, using HPLC/UV detection at an appropriate wavelength (area under the curve; area mAu*min).
2. Photouncaging Experiments
Photolysis (photouncaging) of photocaged HDACi prodrugs was performed at room temperature using an UVP CL-1000 Crosslinker (Analytik Jena GmbH, Jena, Germany) equipped with five UV-A tubes (F8T5/BL368; λmax = 365 nm; Analytik Jena GmbH, Jena, Germany). Hereafter, this entire experimental set-up will be referred to as the "UV-reactor".
For the deprotection experiments 10 µL of a 1.0 mM DMSO-solution of the respective compound were irradiated for 10 min using the UV-reactor described above. Subsequently, 90 µL acetonitrile were added and the samples were analyzed via HPLC. The amount of photo-cleaved HDACi was determined by comparison with a five-point calibration curve of the respective parent inhibitor using HPLC/UV detection at an appropriate wavelength (area under the curve; area mAu*min).
Figure S5. Calibration curve of DDK-137 (I).

HepG2 cancer cell line = test system: HepG2 cancer cell line; design: method as in PMID 30664827; details: cited from earlier work
[3] = test system: asexual blood stage and liver stage parasites; design: method as in PMID 30664827; details: cited from earlier work

SMILES | level of acetyl-histone H3 [1] | yield of photo-released parent inhibitor ([2]; DMSO, HPLC with calibration curve) [%] | concentration of photo-released parent inhibitor after irradiation ([2]; initial concentration 100 µM) [µM] | antiproliferative activity against HepG2 (HepG2 cancer cell line) | antiplasmodial activity [3]
COc1cc(CONC(=O)c2ccc(CN(CC(=O)NCc3ccccc3)C(=O)c3ccc(N(C)C)cc3)cc2)c([N+](=O)[O-])cc1OC [pc-I, N-[2-(Benzylamino)-2-oxoethyl]-N-(4-{[(4,5-dimethoxy-2-nitrobenzyl)oxy]carbamoyl}benzyl)-4-(dimethylamino)benzamide] | higher amount of acetyl-histone-H3 | 82 | 81.5 |  | 
CN(C)c1ccc(C(=O)N(CC(=O)NCc2ccccc2)Cc2ccc(C(=O)NO)cc2)cc1 [I, N-[2-(benzylamino)-2-oxoethyl]-4-(dimethylamino)-N-[4-(hydroxycarbamoyl)-benzyl]-benzamide] |  |  |  | submicromolar antiproliferative activity | potent antiplasmodial activity
